Read-outs that look alike come from different tables or passages of the source.
Assays:
[1] = tested on: HCV replicon (strain 1b) in HUH-7 cells; assay: HCV replicon FRET assay; type: cell-based, Hepatitis C virus
[2] = biological target: T1, HCV NS3/4A protease complex, BMS strain (UniProt P27958, species not given/STRAIN_BMS); assay: FRET peptide assay to monitor HCV NS3/4A proteolytic activity (BMS strain); type: biochemical, Hepatitis C virus (genotype 1a); conditions: read-out: HCV Protease (IC50), NS3/4A BMS strain
T1 construct: other: NS3/4A BMS strain; activity range class; numeric values, unit not given; said of H77 and J4L6S; fused on or other part: A three-lysine solubilising tail at the C-terminus of NS4A; A His tag is implied by the pET21b vector and Ni-NTA purification; Both are printed for the H77 and J4L6S constructs and apply to BMS by inference
T1 sequence (P27958 1027-1657, change not shown, one chain of several): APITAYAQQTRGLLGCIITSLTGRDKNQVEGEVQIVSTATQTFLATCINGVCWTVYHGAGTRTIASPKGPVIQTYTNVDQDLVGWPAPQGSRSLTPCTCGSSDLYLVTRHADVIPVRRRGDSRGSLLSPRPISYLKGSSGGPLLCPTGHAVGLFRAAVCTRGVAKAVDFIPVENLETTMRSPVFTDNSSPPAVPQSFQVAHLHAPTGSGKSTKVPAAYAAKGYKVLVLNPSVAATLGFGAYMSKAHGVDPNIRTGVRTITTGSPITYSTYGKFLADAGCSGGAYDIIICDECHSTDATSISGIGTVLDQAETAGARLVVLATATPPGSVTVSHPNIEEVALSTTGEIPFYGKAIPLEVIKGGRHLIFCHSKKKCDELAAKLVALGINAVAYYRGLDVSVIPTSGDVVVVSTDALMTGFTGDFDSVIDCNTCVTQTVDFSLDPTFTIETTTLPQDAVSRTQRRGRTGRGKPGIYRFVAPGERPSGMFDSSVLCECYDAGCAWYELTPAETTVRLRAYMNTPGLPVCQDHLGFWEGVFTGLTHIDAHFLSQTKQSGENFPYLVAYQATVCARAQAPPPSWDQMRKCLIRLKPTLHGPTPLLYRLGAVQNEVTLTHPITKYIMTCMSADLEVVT
Outline: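 Purified recombinant NS3/4A complex from genotype 1a BMS strain, 2-3 nM final, with RET S1 EDANS/DABCYL depsipeptide substrate at 2 μM final in HEPES pH 7.5, NaCl, Triton, glycerol, βME. Cleavage followed in real time by fluorescence. For high-potency compounds: 50 μg/ml BSA added, protease lowered to 300 pM.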

[3] = Hepatitis C virus, Huh-7, read-out: HCV Pro Replicon (EC50), HCV replicon cell assay, activity range class
[4] = read-out: HCV Pro Replicon (EC50), HCV replicon cell assay, activity range class

For C=C[C@@H]1C[C@]1(NC(=O)[C@@H]1C[C@@H](Oc2ncc(OC)c3ccc(Cl)cc23)CN1C(=O)C(Nc1cncnc1)C(C)C)C(=O)NS(=O)(=O)C1CC1 (single isomer, unassigned) [24 second isomer], the EC50 [1, 3] was > 1 µM and the IC50 ([2]; activity range class) was > 0.2 µM.
With C=CC1CC1(NC(=O)C1CC(Oc2ncc(OC)c3ccc(Cl)cc23)CN1C(=O)C(Nc1ccccc1)C(C)(C)C)C(=O)NS(=O)(=O)C1CC1 (single isomer, unassigned; isomer 3) [213 second isomer] the EC50 [1, 4] was 0.003 to 0.1 µM and the IC50 ([2]; activity range class) was 0.0006 to 0.02 µM.
With C=C[C@@H]1C[C@]1(NC(=O)[C@@H]1C[C@@H](Oc2nccc3cc(OC)ccc23)CN1C(=O)[C@@H](Nc1nc(OC)nc(OC)n1)C(C)C)C(=O)NS(=O)(=O)C1CC1 [Compound 4, N-(4,6-dimethoxy-1,3,5-triazin-2-yl)valyl-(4R)—N-((1R,2S)-1-((cyclopropylsulfonyl)carbamoyl)-2-vinylcyclopropyl)-4-((6-methoxy-1-isoquinolinyl)oxy)-L-prolinamide] the EC50 [1, 3] was > 1 µM and the IC50 ([2]; activity range class) was 0.02 to 0.2 µM.
In the case of C=C[C@@H]1C[C@]1(NC(=O)[C@@H]1C[C@@H](Oc2ncc(OC)c3ccc(Cl)cc23)CN1C(=O)[C@H](Nc1cccc(C(=O)NC(C)(C)C)c1)C(C)(C)C)C(=O)NS(=O)(=O)C1CC1 [212 second isomer, N-(3-(tert-butylcarbamoyl)phenyl)-3-methyl-D-valyl-(4R)-4-((7-chloro-4-methoxy-1-isoquinolinyl)oxy)-N-((1R,2S)-1-((cyclopropylsulfonyl)carbamoyl)-2-vinylcyclopropyl)-L-prolinamide], the EC50 [1, 3] is reported as 0.003 to 0.1 µM and the IC50 ([2]; activity range class) is reported as 0.0006 to 0.02 µM.
With C=C[C@@H]1C[C@]1(NC(=O)[C@@H]1C[C@@H](Oc2ncc(OC)c3ccc(Cl)cc23)CN1C(=O)C(Nc1cc(C)cc(C)n1)C(C)(C)C)C(=O)NS(=O)(=O)C1CC1 (single isomer, unassigned) [22 first isomer] the EC50 [1, 4] was 0.003 to 0.1 µM and the IC50 ([2]; activity range class) was 0.0006 to 0.02 µM.
Work on C=C[C@@H]1C[C@]1(NC(=O)[C@@H]1C[C@@H](Oc2nccc3cc(OC)ccc23)CN1C(=O)C(Nc1ccc(C(F)(F)F)cn1)C(C)C)C(=O)NS(=O)(=O)C1CC1 (single isomer, unassigned) [Compound 2] yielded an EC50 [1, 3] of 0.1 to 1 µM and an IC50 ([2]; activity range class) of 0.02 to 0.2 µM.
In the case of C=C[C@@H]1C[C@]1(NC(=O)[C@@H]1C[C@@H](Oc2ncc(OC)c3ccc(Cl)cc23)CN1C(=O)[C@H](Nc1ccc(C(=O)O)cc1)C(C)(C)C)C(=O)NS(=O)(=O)C1CC1 [209 second isomer, N-(4-carboxyphenyl)-3-methyl-D-valyl-(4R)-4-((7-chloro-4-methoxy-1-isoquinolinyl)oxy)-N-((1R,2S)-1-((cyclopropylsulfonyl)carbamoyl)-2-vinylcyclopropyl)-L-prolinamide], the EC50 [1, 3] is reported as > 1 µM and the IC50 ([2]; activity range class) is reported as > 0.2 µM.
With C=C[C@@H]1C[C@]1(NC(=O)[C@@H]1C[C@@H](Oc2ncc(OC)c3ccc(Cl)cc23)CN1C(=O)C(Nc1ccc(OC)nc1)C(C)(C)C)C(=O)NS(=O)(=O)C1CC1 (single isomer, unassigned) [408 second isomer] the EC50 [1, 4] was 0.1 to 1 µM and the IC50 ([2]; activity range class) was > 0.2 µM.
With C=C[C@@H]1C[C@]1(NC(=O)[C@@H]1C[C@@H](Oc2ncc(OC)c3ccc(Cl)cc23)CN1C(=O)[C@H](Nc1ccccc1F)C(C)(C)C)C(=O)NS(=O)(=O)C1CC1 [234 second isomer, N-(2-fluorophenyl)-3-methyl-D-valyl-(4R)-4-[(7-chloro-4-methoxy-1-isoquinolinyl)oxy]-N-((1R,2S)-1-{[(cyclopropylsulfonyl)amino]carbonyl}-2-vinylcyclopropyl)-L-prolinamide] the EC50 [1, 3] was > 1 µM and the IC50 ([2]; activity range class) was > 0.2 µM.
C=C[C@@H]1C[C@]1(NC(=O)[C@@H]1C[C@@H](Oc2nccc3cc(OC)ccc23)CN1C(=O)[C@@H](Nc1nc(CC)cs1)C(C)(C)C)C(=O)NS(=O)(=O)C1CC1 [Compound 35, N-(4-ethyl-1,3-thiazol-2-yl)-3-methyl-L-valyl-(4R)—N-((1R,2S)-1-((cyclopropylsulfonyl)carbamoyl)-2-vinylcyclopropyl)-4-((6-methoxy-1-isoquinolinyl)oxy)-L-prolinamide] was tested, and the EC50 [1, 3] was 0.003 to 0.1 µM and the IC50 ([2]; activity range class) was 0.0006 to 0.02 µM.
Work on C=C[C@@H]1C[C@]1(NC(=O)[C@@H]1C[C@@H](Oc2nccc3cc(OC)ccc23)CN1C(=O)C(Nc1cc(OC)ccn1)C(C)C)C(=O)NS(=O)(=O)C1CC1 (single isomer, unassigned) [Compound 8] yielded an EC50 [1, 3] of 0.003 to 0.1 µM and an IC50 ([2]; activity range class) of 0.02 to 0.2 µM.
For C=C[C@@H]1C[C@]1(NC(=O)[C@@H]1C[C@@H](Oc2ncc(OC)c3ccc(Cl)cc23)CN1C(=O)[C@@H](Nc1ccc(C#N)cc1)C(C)(C)C)C(=O)NS(=O)(=O)C1CC1 [205 first isomer, N-(4-cyanophenyl)-3-methyl-L-valyl-(4R)-4-((7-chloro-4-methoxy-1-isoquinolinyl)oxy)-N-((1R,2S)-1-((cyclopropylsulfonyl)carbamoyl)-2-vinylcyclopropyl)-L-prolinamide], the EC50 [1, 3] was 0.003 to 0.1 µM and the IC50 ([2]; activity range class) was 0.0006 to 0.02 µM.
With C=C[C@@H]1C[C@]1(NC(=O)[C@@H]1C[C@@H](Oc2ncc(OC)c3ccc(Cl)cc23)CN1C(=O)C(Nc1cncnc1)C(C)C)C(=O)NS(=O)(=O)C1CC1 (single isomer, unassigned) [Compound 24A] the EC50 ([1]; Hepatitis C virus, Huh-7, read-out: HCV Pro Replicon (EC50), HCV replicon cell assay, numeric values, unit inferred) was 0.593 µM and the IC50 ([2]; numeric values, unit inferred) was 0.026 µM.
With C=C[C@@H]1C[C@]1(NC(=O)[C@@H]1C[C@@H](Oc2ncc(OC)c3ccc(Cl)cc23)CN1C(=O)[C@@H](Nc1cccc(C(=O)N(C)C)c1)C(C)(C)C)C(=O)NS(=O)(=O)C1CC1 [218 first isomer, N-(3-(dimethylcarbamoyl)phenyl)-3-methyl-L-valyl-(4R)-4-((7-chloro-4-methoxy-1-isoquinolinyl)oxy)-N-((1R,2S)-1-((cyclopropylsulfonyl)carbamoyl)-2-vinylcyclopropyl)-L-prolinamide] the EC50 [1, 3] was 0.003 to 0.1 µM and the IC50 ([2]; activity range class) was 0.0006 to 0.02 µM.
In the case of C=C[C@@H]1C[C@]1(NC(=O)[C@@H]1C[C@@H](Oc2ncc(OC)c3ccc(Cl)cc23)CN1C(=O)C(CC)Nc1nsnc1OC)C(=O)NS(=O)(=O)C1CC1 (stereo partly drawn) [Compound 240], the EC50 [1, 3] is reported as 0.1 to 1 µM and the IC50 ([2]; activity range class) is reported as 0.0006 to 0.02 µM.
With C=C[C@@H]1C[C@]1(NC(=O)[C@@H]1C[C@@H](Oc2ncc(OC)c3ccc(Cl)cc23)CN1C(=O)[C@H](Nc1cccc(C(=O)O)c1)C(C)(C)C)C(=O)NS(=O)(=O)C1CC1 [211 second isomer, N-(3-carboxyphenyl)-3-methyl-D-valyl-(4R)-4-((7-chloro-4-methoxy-1-isoquinolinyl)oxy)-N-((1R,2S)-1-((cyclopropylsulfonyl)carbamoyl)-2-vinylcyclopropyl)-L-prolinamide] the EC50 [1, 3] was 0.003 to 0.1 µM and the IC50 ([2]; activity range class) was > 0.2 µM.
Work on C=C[C@@H]1C[C@]1(NC(=O)[C@@H]1C[C@@H](Oc2ncc(OC)c3ccc(Cl)cc23)CN1C(=O)[C@@H](Nc1cccc(S(N)(=O)=O)c1)C(C)(C)C)C(=O)NS(=O)(=O)C1CC1 [207 first isomer, 3-methyl-N-(3-sulfamoylphenyl)-L-valyl-(4R)-4-((7-chloro-4-methoxy-1-isoquinolinyl)oxy)-N-((1R,2S)-1-((cyclopropylsulfonyl)carbamoyl)-2-vinylcyclopropyl)-L-prolinamide] yielded an EC50 [1, 3] of 0.003 to 0.1 µM and an IC50 ([2]; activity range class) of 0.0006 to 0.02 µM.
In the case of C=C[C@@H]1C[C@]1(NC(=O)[C@@H]1C[C@@H](Oc2ncc(OC)c3ccc(Cl)cc23)CN1C(=O)[C@@H](Nc1ccc(S(=O)(=O)N(C)C)cc1)C(C)(C)C)C(=O)NS(=O)(=O)C1CC1 [224 first isomer, N-(4-(dimethylsulfamoyl)phenyl)-3-methyl-L-valyl-(4R)-4-((7-chloro-4-methoxy-1-isoquinolinyl)oxy)-N-((1R,2S)-1-((cyclopropylsulfonyl)carbamoyl)-2-vinylcyclopropyl)-L-prolinamide], the EC50 [1, 3] is reported as 0.1 to 1 µM and the IC50 ([2]; activity range class) is reported as 0.0006 to 0.02 µM.
